Measured values: ChEMBL document CHEMBL5338738, “Discovery of Novel Sesquiterpene Lactone Derivatives as Potent PKM2 Activators for the Treatment of Ulcerative Colitis” (J Med Chem, 2023)
Calls of active or inactive are those of the source. The calls are words filed in the database; no cut-off is given here.

Experiments:
[1] = Toxicity in C57BL/6 mouse assessed as histological change in spleen at 6.25 to 25 mg/kg, po for 10 days consecutively by H and E staining based microscopy; type: organism-based; conditions: in vivo, 240 h, dose 6.25-25 mg/kg, time 10 day
[2] = test system: CD4+ve Th; test: (§1) Inhibition of aerobic glycolysis in anti-CD3/CD28 stimulated C57BL/6 mouse mesenteric lymph node CD4+ve Th cells assessed as reduction in glucose utilization by measuring glucose level at 0.3 to 3 uM incubated for 96 hrs in presence of recombinant human TGF-beta, recombinant mouse IL-6 and recombinant mouse IL-23 by colorimetric analysis; type: functional, cell-based; conditions: dose 0.3-3 µM
[3] = test system: Mus musculus; test: Anti-colitis activity against DSS-induced ulcerative colitis C57BL/6 mouse model assessed as decrease in MPO level in colon at 12.5 to 25 mg/kg, po for 10 days consecutively; type: functional, organism-based; conditions: dose 12.5-25 mg/kg, time 10.0 day
[4] = Volume of distribution in Sprague-Dawley rat at 8 mg/kg,iv and measured upto 24 hrs by LC-MS/MS analysis; type: ADME, organism-based; conditions: in vivo
[5] = MRT(t) in Sprague-Dawley rat at 8 mg/kg,iv and measured upto 24 hrs by LC-MS/MS analysis; type: ADME, organism-based; conditions: in vivo
[6] = Clearance in Sprague-Dawley rat at 8 mg/kg,iv and measured upto 24 hrs by LC-MS/MS analysis; type: ADME, organism-based; conditions: in vivo
[7] = test system: Mus musculus; test: Anti-colitis activity against DSS-induced ulcerative colitis C57BL/6 mouse model assessed as downregulation of IL10 mRNA expression level in spleen at 6.25 to 25 mg/kg, po for 10 days consecutively by qPCR assay; type: functional, organism-based; conditions: dose 6.25-25 mg/kg, time 10.0 day
[8] = test system: CD4+ve Th; test: as §1, with “downregulation of Glut1 mRNA expression” for “reduction in glucose utilization by measuring glucose”, “qPCR” for “colorimetric”; type: functional, cell-based; conditions: dose 0.3-3 µM
[9] = test system: CD4+ve Th; test: as §1, with “downregulation of Glut1 protein expression” for “reduction in glucose utilization by measuring glucose”, “Western blot” for “colorimetric”; type: functional, cell-based; conditions: dose 0.3-3 µM
[10] = test system: Mus musculus; test: Anti-colitis activity against DSS-induced ulcerative colitis C57BL/6 mouse model assessed as decrease in IL-6 mRNA expression level in colon at 12.5 to 25 mg/kg, po for 10 days consecutively by qPCR analysis; type: functional, organism-based; conditions: dose 12.5-25 mg/kg, time 10.0 day
[11] = test system: CD4+ve Th; test: (§2) Inhibition of Th17 cells differentiation in anti-CD3/CD28 stimulated C57BL/6 mouse mesenteric lymph node CD4+ve Th cells assessed as downregulation of IL17f mRNA expression level at 0.1 to 3 uM incubated for 96 hrs in presence of recombinant human TGF-beta, recombinant mouse IL-6 and recombinant mouse IL-23 by qPCR analysis; type: functional, cell-based; conditions: dose 0.1-3 µM
[12] = test system: CD4+ve Th; test: as §2, with “aerobic glycolysis” for “Th17 cells differentiation”, “Hk2” for “IL17f”, “0.3” for “0.1”; type: functional, cell-based; conditions: dose 0.3-3 µM
[13] = test system: Mus musculus; test: Anti-colitis activity against TNBS-induced ulcerative colitis BALB/c mouse model assessed as increase in survival rate at 12.5 to 25 mg/kg, po for consecutive 7 days; type: functional, organism-based; conditions: dose 12.5-25 mg/kg, time 7.0 day
[14] = Microsomal stability in rat liver microsomes assessed as intrinsic clearance; type: ADME, Microsome; conditions: read-out: CLH
[15] = molecular target: Pyruvate kinase PKM (Homo sapiens, UniProt P14618); test: Covalent binding affinity to recombinant human PKM2 at Cys424 residue at 20 uM incubated for 120 mins by LC-MS/MS analysis; conditions: filed as activator
[16] = test system: Mus musculus; test: Anti-colitis activity against DSS-induced ulcerative colitis C57BL/6 mouse model assessed as downregulation of IL10 mRNA expression level in mesenteric lymph nodes at 6.25 to 25 mg/kg, po for 10 days consecutively by qPCR assay; type: functional, organism-based; conditions: dose 6.25-25 mg/kg, time 10.0 day
[17] = as §2, with “decrease in proportion” for “downregulation”, “IL17A-positive Th17 cells” for “IL17f mRNA expression level”, “at” for “at 0.1 to”, “flow cytometry (Rvb= 16.7%)” for “qPCR analysis”; type: functional; conditions: C57BL/6, CD4+ve Th
[18] = test system: Mus musculus; test: Anti-colitis activity against TNBS-induced ulcerative colitis BALB/c mouse model assessed as decrease in crypt necrosis in colon at 12.5 to 25 mg/kg, po for consecutive 7 days by H and E staining based microscopy; type: functional, organism-based; conditions: dose 12.5-25 mg/kg, time 7.0 day
[19] = Tmax in Sprague-Dawley rat at 8 mg/kg,iv and measured upto 24 hrs by LC-MS/MS analysis; type: ADME, organism-based; conditions: in vivo
[20] = molecular target: Pyruvate kinase PKM (Mus musculus) (UniProt P52480); test: Binding affinity to PKM2 in C57BL/6 mouse mesenteric lymph node CD4+ve Th cells assessed as increase in denaturation temperature at 3 uM incubated for 4 hrs by […] analysis; conditions: filed as activator
[21] = test system: Mus musculus; test: Anti-colitis activity against DSS-induced ulcerative colitis C57BL/6 mouse model assessed as downregulation of RORC mRNA expression level in mesenteric lymph nodes at 12.5 to 25 mg/kg, po for 10 days consecutively by qPCR assay; type: functional, organism-based; conditions: dose 12.5-25 mg/kg, time 10.0 day
[22] = test system: CD4+ve Th; test: Inhibition of Treg cells differentiation in anti-CD3/CD28 stimulated C57BL/6 mouse mesenteric lymph node CD4+ve Th cells assessed as change in Foxp3 mRNA expression level cells at 0.1 to 3 uM incubated for 96 hrs in presence of recombinant human TGF-beta by qPCR analysis; type: functional, cell-based; conditions: dose 0.1-3 µM
[23] = Microsomal stability in rat liver microsomes assessed as half life; type: ADME, Microsome
[24] = test system: Mus musculus; test: Anti-colitis activity against DSS-induced ulcerative colitis C57BL/6 mouse model assessed as reduction in histological score in colon at 12.5 to 25 mg/kg, po for 10 days consecutively by H and E staining based microscopic analysis; type: functional, organism-based; conditions: dose 12.5-25 mg/kg, time 10.0 day
[25] = test system: CD4+ve Th; test: Cytotoxicity against C57BL/6 mouse mesenteric lymph node CD4+ve Th cells assessed as reduction in cell proliferation at 0.3 to 3 uM incubated for 96 hrs by CCK-8 assay; type: toxicity, cell-based; conditions: dose 0.3-3 µM
[26] = Cmax in Sprague-Dawley rat at 75 mg/kg,po and measured upto 24 hrs by LC-MS/MS analysis; type: ADME, organism-based; parameters: dose 75 mg/kg, time < 24 hrs, route po; conditions: in vivo
[27] = test system: Mus musculus; test: Anti-colitis activity against DSS-induced ulcerative colitis C57BL/6 mouse model assessed as reduction in inflammatory cell infiltration in colon at 12.5 to 25 mg/kg, po for 10 days consecutively by H and E staining based microscopic analysis; type: functional, organism-based; conditions: dose 12.5-25 mg/kg, time 10.0 day

Pyruvate kinase PKM, sequence (P14618 2-531 limits assumed): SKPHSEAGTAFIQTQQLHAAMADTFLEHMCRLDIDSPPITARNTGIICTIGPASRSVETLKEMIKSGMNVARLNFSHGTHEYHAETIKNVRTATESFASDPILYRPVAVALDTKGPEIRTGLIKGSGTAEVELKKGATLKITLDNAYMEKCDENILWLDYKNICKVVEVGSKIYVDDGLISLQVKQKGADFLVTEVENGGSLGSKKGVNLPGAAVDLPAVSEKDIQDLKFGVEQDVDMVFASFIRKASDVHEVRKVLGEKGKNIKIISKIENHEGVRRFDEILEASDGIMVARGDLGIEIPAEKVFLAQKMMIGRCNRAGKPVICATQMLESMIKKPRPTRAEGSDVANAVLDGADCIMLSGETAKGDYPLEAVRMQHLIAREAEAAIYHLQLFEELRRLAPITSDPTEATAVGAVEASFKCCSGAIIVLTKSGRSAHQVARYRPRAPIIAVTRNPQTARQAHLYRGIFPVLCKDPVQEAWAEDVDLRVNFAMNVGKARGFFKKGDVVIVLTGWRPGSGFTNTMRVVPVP
Pyruvate kinase PKM (Mus musculus), sequence (P52480 whole entry): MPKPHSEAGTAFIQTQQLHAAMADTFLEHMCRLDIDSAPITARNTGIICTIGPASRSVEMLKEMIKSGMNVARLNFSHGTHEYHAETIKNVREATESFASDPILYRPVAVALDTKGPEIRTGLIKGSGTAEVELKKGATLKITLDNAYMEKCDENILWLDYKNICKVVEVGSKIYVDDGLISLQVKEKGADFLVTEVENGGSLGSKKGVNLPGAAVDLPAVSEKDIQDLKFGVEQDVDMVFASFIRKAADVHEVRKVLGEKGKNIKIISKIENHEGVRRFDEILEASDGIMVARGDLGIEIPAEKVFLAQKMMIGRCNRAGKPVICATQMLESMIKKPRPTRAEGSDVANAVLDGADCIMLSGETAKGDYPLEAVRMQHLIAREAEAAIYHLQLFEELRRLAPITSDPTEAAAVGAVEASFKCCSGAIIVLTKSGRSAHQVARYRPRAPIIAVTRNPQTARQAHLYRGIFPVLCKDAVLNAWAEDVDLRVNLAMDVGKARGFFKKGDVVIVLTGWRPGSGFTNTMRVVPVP

Vd [4]: 17.6 L/kg
MRT last at 24 h [5]: 300 min
clearance [6]: 103 mL/min/kg
microsomal CLint [14]: 110 µL/min/mg
Activity [15]: Active
Tmax [19]: 4.98 min
ΔTm [20]: 6 °C
half-life [23]: 12.6 min
Cmax [26]: 82 ng/mL
Compound: C=C1C(=O)O[C@H]2[C@H]1CC[C@@]1(C)[C@@H](CC[C@@]3(C)O[C@@H]23)C1(F)F
Activity [1]: Non-Toxic
inhibition [2]: Active
Activity [3]: Active
Activity [7]: inactive
inhibition [8]: Active
inhibition [9]: Active
Activity [10]: Active
inhibition [11]: Active
inhibition [12]: Active
Activity [13]: Active
Activity [16]: inactive
IL17A+ cells at 3 µM [17]: 4.26%
Activity [18]: Active
Activity [21]: Active
inhibition [22]: inactive
Activity [24]: Active
Activity [25]: Non-Toxic
Activity [27]: Active
